Assay results reported in patent publication US9795602B2, “Polycyclic-carbamoylpyridone compounds and their pharmaceutical use” (Gilead Sciences, Inc., priority 2014, dated 2017).

Assay: Plasma protein binding (equilibrium dialysis)
Assay type: in vitro ADME
Conditions: human, plasma (sodium EDTA) dialysed against buffer; 2 μM in plasma vs. buffer, 24 hours at 37° C.; read-out: % Free HP/Buffer
Procedure: Plasma protein binding was determined using a HTD96b equilibrium dialyzer with a plate base, stainless steel pressure plate and Teflon bock. 9 Teflon bars, labeled sequentially from A through I, were assembled with two stainless steel connecting rods. Membranes were placed between two Teflon bars, with the membrane placed approximately 2 mm below the top edge of the bar and the lower membrane edge overlapped the bottom of all wells. The membrane was soaked for about 20 minutes in water, about 20 minutes in ethanol (30/70 v/v) and rinsed with water three times to remove the ethanol. It was soaked in PBS for at least 30 minutes. Plasma in sodium EDTA (Bioreclamation or equivalent) was used. The Plasma (not pH-adjusted) was stored at −80° C. and thawed at room temperature before use. The stock solution of the compounds tested was at 200 μM in DMSO. The quench solution used was 50 nM of an internal standard in 100% ACN. To prepare a 2 μM solution of the compound tested in plasma, 5 μL of a 200 μM stock solution was added to 495 μL of blank plasma. 100 μL plasma was added with 2 μM of test compound into one side of the well. 100 μL of buffer (for plasma vs. buffer) was added into another side of the well. The 96-well plate was covered using an adhesive sealing film and incubated for 24 hours at 37° C. under slow rotation. This procedure was replicated for each compound. 50 μL of plasma sample was put into a 96 well plate, 50 μL of buffer was added. 50 μL of buffer was put into a 96 well plate. 50 μL of plasma was added. 300 μL of quench solution was added and the plate sealed and shaken for 15 minutes. The material was centrifuged for 30 minutes at 3000 RPM and ˜250 μL was transferred into a short plate. The samples were analyzed by LC/MS. The resulting data is shown in the last row of Table 3 as “% Free” which corresponds to the percentage of compound not protein bound.

Compound	fraction unbound at 24 h, 2 µM
CCN1C(=O)c2c(O)c(=O)c(C(=O)NCc3ccc(F)c(Cl)c3F)cn2[C@H]2CCO[C@H]21 [Compound 25b]	< 0.001
CCN1C(=O)c2c(O)c(=O)c(C(=O)NCc3ccc(F)c(Cl)c3F)cn2[C@H]2CCOC[C@H]21 [Compound 39]	0.0067
